According to ChEMBL document CHEMBL1201862, “PubChem BioAssay data set” (2004):
The source made the active and inactive calls.

Legend:
[1] = toxicity to human hepatoma HepG2 cells – cell-based, cherry-picked samples, cytotoxicity control, dose response (AID 1159577); type: functional
[2] = P. falciparum Dd2 growth inhibitors, dose response, SYBR Green, cherry-picked samples (AID 1159567); type: functional, cell-based
Cytochrome P450 3A4 = Cytochrome P450 3A4 (Homo sapiens, UniProt P08684);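 further: CYP3A4 tested as one member of a cytochrome P450 panel screen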
Sequence of Cytochrome P450 3A4 (P08684 whole entry): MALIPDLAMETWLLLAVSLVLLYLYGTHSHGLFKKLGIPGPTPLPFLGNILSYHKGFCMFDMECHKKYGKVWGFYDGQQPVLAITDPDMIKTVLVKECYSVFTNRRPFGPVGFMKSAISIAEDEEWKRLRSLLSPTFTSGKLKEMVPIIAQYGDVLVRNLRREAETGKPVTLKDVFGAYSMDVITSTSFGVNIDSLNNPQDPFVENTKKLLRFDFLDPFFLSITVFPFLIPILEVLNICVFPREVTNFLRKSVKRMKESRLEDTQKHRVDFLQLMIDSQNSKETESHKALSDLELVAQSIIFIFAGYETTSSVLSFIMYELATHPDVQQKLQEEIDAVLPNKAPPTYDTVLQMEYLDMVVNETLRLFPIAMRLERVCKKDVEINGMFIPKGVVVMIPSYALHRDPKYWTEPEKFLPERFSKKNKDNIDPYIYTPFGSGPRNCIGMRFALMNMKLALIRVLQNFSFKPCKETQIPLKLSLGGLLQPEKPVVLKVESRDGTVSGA

Protein skinhead-1 = target: T1, Protein skinhead-1 (Caenorhabditis elegans, UniProt P34707); type: functional
T1 sequence (P34707 whole entry): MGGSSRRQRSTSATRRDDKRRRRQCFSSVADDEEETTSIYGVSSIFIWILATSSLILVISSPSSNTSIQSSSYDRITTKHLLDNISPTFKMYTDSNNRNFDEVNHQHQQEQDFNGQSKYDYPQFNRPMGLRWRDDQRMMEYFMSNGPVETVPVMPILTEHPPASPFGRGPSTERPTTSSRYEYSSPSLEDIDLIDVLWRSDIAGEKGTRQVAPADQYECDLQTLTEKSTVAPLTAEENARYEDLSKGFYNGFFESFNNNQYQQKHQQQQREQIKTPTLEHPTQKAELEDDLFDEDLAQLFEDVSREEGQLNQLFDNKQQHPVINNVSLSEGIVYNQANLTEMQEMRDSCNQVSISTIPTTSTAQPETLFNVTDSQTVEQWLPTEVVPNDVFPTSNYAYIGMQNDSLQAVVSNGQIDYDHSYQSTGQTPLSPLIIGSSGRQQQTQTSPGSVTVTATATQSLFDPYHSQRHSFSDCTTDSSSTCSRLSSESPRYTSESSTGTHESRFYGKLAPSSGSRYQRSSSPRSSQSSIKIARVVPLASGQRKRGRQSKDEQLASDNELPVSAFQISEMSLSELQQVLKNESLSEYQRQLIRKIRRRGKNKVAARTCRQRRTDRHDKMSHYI

[3] = target: Disintegrin and metalloproteinase domain-containing protein 17 (Homo sapiens, UniProt P78536); experiment: exosite inhibitors of ADAM17, dose response, biochemical (AID 743260)
Sequence of Disintegrin and metalloproteinase domain-containing protein 17 (P78536 whole entry, the tested form may be a part): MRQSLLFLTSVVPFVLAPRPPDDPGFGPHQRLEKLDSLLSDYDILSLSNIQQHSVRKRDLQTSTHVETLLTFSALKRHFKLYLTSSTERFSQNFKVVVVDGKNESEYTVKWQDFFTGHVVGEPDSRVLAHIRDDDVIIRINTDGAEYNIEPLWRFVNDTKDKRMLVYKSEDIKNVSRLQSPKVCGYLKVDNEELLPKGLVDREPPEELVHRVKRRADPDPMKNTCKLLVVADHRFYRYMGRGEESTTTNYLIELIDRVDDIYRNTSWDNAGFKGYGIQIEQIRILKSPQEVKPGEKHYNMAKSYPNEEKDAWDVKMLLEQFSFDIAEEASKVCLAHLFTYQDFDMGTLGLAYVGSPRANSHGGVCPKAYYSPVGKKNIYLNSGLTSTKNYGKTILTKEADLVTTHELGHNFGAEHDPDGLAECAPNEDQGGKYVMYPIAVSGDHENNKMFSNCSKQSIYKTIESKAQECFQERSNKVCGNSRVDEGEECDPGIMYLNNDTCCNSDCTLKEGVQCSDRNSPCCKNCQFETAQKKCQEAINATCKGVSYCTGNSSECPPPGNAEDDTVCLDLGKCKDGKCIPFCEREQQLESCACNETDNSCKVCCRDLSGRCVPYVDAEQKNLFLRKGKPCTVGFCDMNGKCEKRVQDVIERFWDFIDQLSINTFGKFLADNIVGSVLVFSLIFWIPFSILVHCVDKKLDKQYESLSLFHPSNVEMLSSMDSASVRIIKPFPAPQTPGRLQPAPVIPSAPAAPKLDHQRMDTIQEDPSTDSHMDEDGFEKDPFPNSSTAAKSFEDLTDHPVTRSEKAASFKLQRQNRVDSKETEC

[4] = inhibition of ADAM10 peptide cleavage – biochemical, FRET peptide substrate, recombinant human ADAM10, selectivity assay for ADAM17 exosite inhibitor project, dose response (AID 743259);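 further: ADAM10 enzyme cleaving a FRET peptide substrate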
Prothrombin = Prothrombin (Homo sapiens, UniProt P00734); experiment: Thrombin 1536 HTS Dose Response Confirmation. [Related pubchem assays: 1046 (Thrombin 1536 HTS; hits were confirmed in this assay)]; type: functional
[5] = target: Luciferin 4-monooxygenase (Photinus pyralis, UniProt P08659); experiment: inhibition of purified Photinus pyralis luciferase – biochemical, luminescence, dose response (AID 1891)
Sequence of Luciferin 4-monooxygenase (P08659 whole entry): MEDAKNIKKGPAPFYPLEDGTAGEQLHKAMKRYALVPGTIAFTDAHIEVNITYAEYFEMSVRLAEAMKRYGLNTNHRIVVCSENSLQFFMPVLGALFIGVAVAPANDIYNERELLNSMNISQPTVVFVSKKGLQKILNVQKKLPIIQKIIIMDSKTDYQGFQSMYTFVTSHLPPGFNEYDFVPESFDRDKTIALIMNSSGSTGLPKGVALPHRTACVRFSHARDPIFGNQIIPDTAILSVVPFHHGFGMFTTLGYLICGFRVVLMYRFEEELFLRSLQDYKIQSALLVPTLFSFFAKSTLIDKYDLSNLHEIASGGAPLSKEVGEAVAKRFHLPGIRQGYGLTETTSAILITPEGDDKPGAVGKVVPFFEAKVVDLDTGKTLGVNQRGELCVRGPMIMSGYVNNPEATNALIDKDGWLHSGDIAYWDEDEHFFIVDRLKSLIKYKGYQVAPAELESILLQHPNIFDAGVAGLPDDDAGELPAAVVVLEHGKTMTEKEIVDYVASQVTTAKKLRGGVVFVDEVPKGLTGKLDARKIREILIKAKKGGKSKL

[6] = NIH3T3 cell viability loss – ATP luminescence, mouse fibroblasts, counter-screen, dose response (AID 2010); type: functional, cell-based;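 further: cells exposed to compound for about 90 hours before reading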
[7] = Trypanosoma cruzi growth suppression in host cells – NIH3T3 host cells, beta-gal luminescence, confirmation (AID 2044); type: functional, cell-based;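 further: intracellular parasites grown in NIH/3T3 mouse fibroblasts as host cells; luminescent beta-galactosidase reporter signal from transgenic T. cruzi replicating inside host cells; inhibitors lower the luminescence signal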
[8] = A cytotoxicity screen of small molecule inhibitors of the PhoP region in Salmonella typhi identified in the primary screen. [Related pubchem assays: 1850, 1864, 1985 ]; type: functional
[9] = target: Eukaryotic translation initiation factor 4E (Mus musculus, UniProt P63073); experiment: blockers of eIF4G binding by eIF4E – biochemical, TR-FRET, dose response (AID 855); type: functional;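 further: potency for disrupting eIF4E binding to eIF4GI seen as loss of FRET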
Sequence of Eukaryotic translation initiation factor 4E (P63073 whole entry): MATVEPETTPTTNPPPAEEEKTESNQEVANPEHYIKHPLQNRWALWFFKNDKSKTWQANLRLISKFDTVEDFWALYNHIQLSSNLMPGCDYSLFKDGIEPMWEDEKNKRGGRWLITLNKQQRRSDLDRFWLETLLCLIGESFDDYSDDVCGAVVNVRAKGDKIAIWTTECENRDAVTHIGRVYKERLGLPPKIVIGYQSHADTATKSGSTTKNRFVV

[10] = general mammalian cell viability loss – inhibitor set, cherry-pick, set 2, cytotoxicity control for miR-122 modulator project, dose response (AID 720697); type: functional, cell-based
P388/ADR = experiment: cells; type: functional; settings: Mus musculus
P388 = experiment: cells; type: functional; settings: Mus musculus
SN12K1 = experiment: cells; type: functional; settings: Homo sapiens
Estrogen receptor beta = Estrogen receptor beta (Homo sapiens, UniProt Q92731); experiment: blockers of SRC-3 recruitment to ERβ – biochemical, ELISA, streptavidin-HRP readout, orthogonal assay, confirmation (AID 1060)
Sequence of Estrogen receptor beta (Q92731 whole entry): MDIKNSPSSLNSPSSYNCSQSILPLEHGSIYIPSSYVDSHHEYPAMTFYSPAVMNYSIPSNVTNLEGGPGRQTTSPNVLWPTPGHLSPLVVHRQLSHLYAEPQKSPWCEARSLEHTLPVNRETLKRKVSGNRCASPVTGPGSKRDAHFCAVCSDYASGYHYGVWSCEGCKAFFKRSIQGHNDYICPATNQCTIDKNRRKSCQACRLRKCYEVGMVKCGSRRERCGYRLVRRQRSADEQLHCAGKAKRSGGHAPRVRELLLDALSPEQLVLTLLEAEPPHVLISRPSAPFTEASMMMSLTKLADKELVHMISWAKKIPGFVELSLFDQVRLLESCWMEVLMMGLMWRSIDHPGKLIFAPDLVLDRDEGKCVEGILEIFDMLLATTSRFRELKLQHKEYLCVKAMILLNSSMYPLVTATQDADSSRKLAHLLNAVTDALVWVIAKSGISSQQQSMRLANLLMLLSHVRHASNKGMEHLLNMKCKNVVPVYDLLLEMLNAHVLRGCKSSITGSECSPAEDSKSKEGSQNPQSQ

[11] = target: T2, Polyadenylate-binding protein 1 (Homo sapiens, UniProt P11940); experiment: MLLE binding blockers, Cy5 peptide tracer – biochemical, fluorescence polarization, Cy5-PAM2 peptide, secondary, miRNA deadenylation inhibitor project, dose response (AID 602260); type: functional; settings: read-out: IC50_Mean
T2 sequence (P11940 whole entry): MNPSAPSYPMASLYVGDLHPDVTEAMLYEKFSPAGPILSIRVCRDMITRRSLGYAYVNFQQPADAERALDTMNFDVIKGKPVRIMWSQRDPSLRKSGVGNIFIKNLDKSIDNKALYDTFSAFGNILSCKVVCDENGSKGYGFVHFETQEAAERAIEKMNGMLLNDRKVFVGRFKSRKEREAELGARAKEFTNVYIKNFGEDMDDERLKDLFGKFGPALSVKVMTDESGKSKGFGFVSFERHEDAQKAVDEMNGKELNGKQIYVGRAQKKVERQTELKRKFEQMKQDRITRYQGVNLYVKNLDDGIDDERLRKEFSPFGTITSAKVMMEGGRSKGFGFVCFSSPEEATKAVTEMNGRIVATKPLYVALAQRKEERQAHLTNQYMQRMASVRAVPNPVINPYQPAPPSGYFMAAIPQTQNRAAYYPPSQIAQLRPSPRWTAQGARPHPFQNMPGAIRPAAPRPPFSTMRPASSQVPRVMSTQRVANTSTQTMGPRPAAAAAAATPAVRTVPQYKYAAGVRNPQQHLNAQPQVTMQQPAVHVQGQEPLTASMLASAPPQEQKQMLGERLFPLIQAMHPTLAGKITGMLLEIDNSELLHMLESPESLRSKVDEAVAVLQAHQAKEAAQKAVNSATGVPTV

[12] = target: DNA dC->dU-editing enzyme APOBEC-3G (Homo sapiens, UniProt Q9HC16); experiment: Dose Response confirmation of small molecule APOBEC3G DNA Deaminase Inhibitors via a fluorescence-based single-stranded DNA deaminase assay. [Related pubchem assays (depositor defined):AID493012, AID493028]; type: functional
[13] = target: T2, Polyadenylate-binding protein 1; experiment: MLLE domain peptide-binding blockers, IC50 – biochemical, fluorescence polarization, FITC-PAM2 peptide, dose response (AID 602259); type: functional; settings: read-out: IC50_Mean
[14] = viability of uninfected HEp-2 cells – cell-based, HTS, cytotoxicity control for RSV inhibitor project, dose response (AID 2410); type: functional; settings: human respiratory syncytial virus
[15] = target: T3, Ubiquitin-conjugating enzyme E2 N (Homo sapiens, UniProt P61088); type: functional;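 further: Dose-response confirmation in a TR-FRET assay detecting UBC13-driven polyubiquitin chain formation, inhibition measured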
T3 sequence (P61088 whole entry): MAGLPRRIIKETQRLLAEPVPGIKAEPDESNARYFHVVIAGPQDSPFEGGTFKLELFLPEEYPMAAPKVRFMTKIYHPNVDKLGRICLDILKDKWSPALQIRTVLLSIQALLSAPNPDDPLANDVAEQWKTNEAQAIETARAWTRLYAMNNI

[16] = Luminescence Cell-Based Dose Retest to Confirm Inhibitors of Cancer Stem Cells. [Related pubchem assays (depositor defined):AID2717, AID2721]; type: functional; settings: Homo sapiens
Cytochrome P450 2C9 = Cytochrome P450 2C9 (Homo sapiens, UniProt P11712)
Sequence of Cytochrome P450 2C9 (P11712 whole entry): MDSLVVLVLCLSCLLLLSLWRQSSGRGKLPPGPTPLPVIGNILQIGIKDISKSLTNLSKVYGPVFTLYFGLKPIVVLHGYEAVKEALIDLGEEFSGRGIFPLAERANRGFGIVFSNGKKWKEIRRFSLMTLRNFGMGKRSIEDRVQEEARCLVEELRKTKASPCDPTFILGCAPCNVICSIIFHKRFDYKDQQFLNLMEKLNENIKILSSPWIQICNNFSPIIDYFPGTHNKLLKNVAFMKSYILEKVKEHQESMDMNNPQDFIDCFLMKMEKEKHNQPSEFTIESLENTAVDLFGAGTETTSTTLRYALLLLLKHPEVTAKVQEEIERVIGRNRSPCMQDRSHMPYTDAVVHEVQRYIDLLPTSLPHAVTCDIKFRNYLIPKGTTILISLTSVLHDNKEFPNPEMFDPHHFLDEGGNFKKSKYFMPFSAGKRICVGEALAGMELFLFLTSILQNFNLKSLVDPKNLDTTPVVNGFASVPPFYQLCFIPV

Cytochrome P450 2D6 = Cytochrome P450 2D6 (Homo sapiens, UniProt P10635);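 further: CYP2D6 member of a cytochrome P450 panel assay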
Sequence of Cytochrome P450 2D6 (P10635 whole entry): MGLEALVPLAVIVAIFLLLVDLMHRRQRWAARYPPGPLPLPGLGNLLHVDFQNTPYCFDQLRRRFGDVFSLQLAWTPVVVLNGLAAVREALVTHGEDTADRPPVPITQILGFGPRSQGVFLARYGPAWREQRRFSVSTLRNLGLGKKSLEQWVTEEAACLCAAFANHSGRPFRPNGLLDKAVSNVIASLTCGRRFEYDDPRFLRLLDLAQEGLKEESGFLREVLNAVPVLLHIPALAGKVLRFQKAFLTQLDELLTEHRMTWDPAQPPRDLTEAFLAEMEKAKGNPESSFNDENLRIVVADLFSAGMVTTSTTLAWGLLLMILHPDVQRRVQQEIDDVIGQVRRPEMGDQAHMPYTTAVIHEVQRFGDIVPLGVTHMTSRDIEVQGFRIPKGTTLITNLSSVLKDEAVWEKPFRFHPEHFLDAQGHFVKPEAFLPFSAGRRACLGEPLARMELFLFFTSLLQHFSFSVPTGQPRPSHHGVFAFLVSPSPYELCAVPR

Cytochrome P450 1A2 = target: T4, Cytochrome P450 1A2 (Homo sapiens, UniProt P05177);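 further: PubChem cytochrome P450 panel assay, CYP1A2 panel member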
T4 sequence (P05177 whole entry): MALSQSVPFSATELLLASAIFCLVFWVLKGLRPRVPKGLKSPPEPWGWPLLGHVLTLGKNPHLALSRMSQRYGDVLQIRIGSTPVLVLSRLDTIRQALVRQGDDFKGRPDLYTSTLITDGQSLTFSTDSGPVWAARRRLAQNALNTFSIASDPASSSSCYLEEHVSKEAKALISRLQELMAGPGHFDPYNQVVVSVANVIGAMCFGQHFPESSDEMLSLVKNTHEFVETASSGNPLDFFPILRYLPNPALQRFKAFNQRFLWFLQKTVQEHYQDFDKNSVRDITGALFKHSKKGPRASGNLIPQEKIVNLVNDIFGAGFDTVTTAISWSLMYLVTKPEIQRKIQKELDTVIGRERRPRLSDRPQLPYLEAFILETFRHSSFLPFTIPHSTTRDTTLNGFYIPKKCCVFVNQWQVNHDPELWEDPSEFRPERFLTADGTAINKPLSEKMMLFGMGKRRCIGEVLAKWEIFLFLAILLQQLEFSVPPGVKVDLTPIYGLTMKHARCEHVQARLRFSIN

Cytochrome P450 2C19 = Cytochrome P450 2C19 (Homo sapiens, UniProt P33261); experiment: Cytochrome panel assay with activity outcomes. Panel member name: p450-cyp2c19 Compounds with AC50 equal or less than 10 uM are considered active; type: functional; settings: read-out: AC50
Sequence of Cytochrome P450 2C19 (P33261 whole entry): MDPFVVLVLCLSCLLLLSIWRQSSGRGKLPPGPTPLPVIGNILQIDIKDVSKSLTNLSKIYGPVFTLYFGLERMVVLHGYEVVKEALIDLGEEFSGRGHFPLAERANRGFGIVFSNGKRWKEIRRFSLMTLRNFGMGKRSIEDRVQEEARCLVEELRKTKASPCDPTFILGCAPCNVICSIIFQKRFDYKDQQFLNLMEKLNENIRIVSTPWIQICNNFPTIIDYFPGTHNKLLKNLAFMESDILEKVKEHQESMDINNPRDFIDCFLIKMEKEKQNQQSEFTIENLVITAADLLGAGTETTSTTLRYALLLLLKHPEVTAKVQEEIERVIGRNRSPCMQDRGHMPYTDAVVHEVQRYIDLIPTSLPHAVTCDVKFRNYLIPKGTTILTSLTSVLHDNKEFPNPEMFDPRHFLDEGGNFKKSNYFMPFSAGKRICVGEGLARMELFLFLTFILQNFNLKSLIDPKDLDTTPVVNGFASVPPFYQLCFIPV

Cc1ccc(-c2ccc3c(c2)O[C@@H](CN(C)C(=O)Nc2ccc(C(F)(F)F)cc2)[C@H](C)CN([C@H](C)CO)S3(=O)=O)cc1
AC50 [1]: > 39 µM (inactive) | AC50 [2]: 5.26 µM (active)

c1ccc(Oc2cc(-c3ccccc3)ncn2)cc1
AC50 (Cytochrome P450 3A4): inconclusive | IC50 (Protein skinhead-1): 17.4 µM (active)

CN(c1ccc(OCc2ccc([N+](=O)[O-])cc2)cc1)S(=O)(=O)c1ccccc1
IC50 [3]: > 69.5 µM (inactive) | IC50 [4]: > 69.5 µM (inactive)

O=C(CC(c1ccc(F)cc1)c1ccco1)N1CCOCC1 (stereo not given)
IC50 (Prothrombin): > 50 µM (not active)

O=C(COC(=O)c1n[nH]c2ccccc12)Nc1cccc(S(=O)(=O)N2CCOCC2)c1
IC50 (Prothrombin): 1.11 µM (active) | EC50 [5]: > 112 µM (not active)

O=C(NCCc1ccncc1)Nc1ccc(Cl)c(Cl)c1
EC50 [6]: > 60 µM (not active) | EC50 [7]: 1.34 µM (active) | EC50 [8]: > 50 µM (active)

N#CCCn1c2ccccc2c2nc3ccccc3nc21
EC50 [8]: > 50 µM (active)

O=C(O)C1CC(c2ccccc2F)=NO1 (stereo not given)
IC50 [9]: > 64 µM (inactive)

COc1ccc(NC(=O)C2CCN(S(=O)(=O)c3c(C)noc3/C=C/N(C)C)CC2)cc1
IC50 [3]: > 69.5 µM (inactive) | IC50 [4]: 23.9 µM (inactive)

COc1ccc(Cl)cc1NC(=O)CN(C)CC(=O)Nc1ccccc1C(F)(F)F
EC50 [8]: > 50 µM (active)

CN(C)CCCNC(=O)C[C@H]1CC[C@H]2[C@H](COc3ccc(NC(=O)NC4CCCC4)cc3C(=O)N2C)O1
AC50 [10]: 0.509 µM (active)

CN(C)CCNC(=O)c1cccc2ccc(-c3ccc(F)cc3)nc12
GI50 (P388/ADR): 1.75 µM (inactive) | GI50 (P388): 0.61 µM (active) | GI50 (SN12K1): 2.96 µM (inactive)

O=C(Nc1cc(Cl)ccc1O)C1CC(c2c(F)cccc2Cl)=NO1 (stereo not given)
IC50 [3]: > 69.5 µM (inactive) | IC50 [4]: > 69.5 µM (inactive)

Cc1nc2ncnn2c(N2CCN(C(=O)Cc3cccs3)CC2)c1C
IC50 (Estrogen receptor beta): 0.107 µM (not active)

O=C(Cn1c(=O)c2ccccc2n(CC(=O)N2CCCCC2)c1=O)N1CCCCC1
AC50 [10]: 6.5 µM (active)

Cc1nc2cc(C(=O)N3CCC4(CC3)OCCO4)ccc2n1-c1cccc(F)c1
EC50 [8]: > 50 µM (active)

CCC(/C=C/C1OC(=O)C=CC1C)=C\C(C)C/C=C/C(C)=C/C(C)C(=O)C(C)C(O)C(C)C/C(C)=C/C(=O)O (stereo not given)
GI50 (P388): 0.914 µM (active) | GI50 (SN12K1): 1.56 µM (inactive)

Cn1c(SCC(=O)NN=C(S)Nc2ccccc2)nnc1-c1ccncc1
IC50 (Prothrombin): > 50 µM (not active)

COc1ccc(C2=NS(=O)(=O)N(C)C(C(=O)Nc3ccc(C)cc3)=C2)cc1
IC50 [3]: > 69.5 µM (inactive) | IC50 [4]: 56.7 µM (inactive)

OC[C@H]1[C@@H](c2ccc(/C=C/c3ccccc3)cc2)[C@@H]2CN(Cc3ccncc3)CCCCN12
AC50 [1]: 12.7 µM (active) | AC50 [2]: 2.32 µM (active)

C[N+](C)([O-])CCOc1cc2c(c3ccccc13)-c1ccccc1C2=O
GI50 (P388/ADR): 8.79 µM (inactive) | GI50 (P388): 6.19 µM (inactive) | GI50 (SN12K1): 4.37 µM (inactive)

O=[N+]([O-])c1ccc2[nH]c3c(-c4ccccc4)nccc3c2c1
GI50 (P388/ADR): 12.9 µM (inactive) | GI50 (P388): 10.9 µM (inactive) | GI50 (SN12K1): 20.5 µM (inactive)

COc1nc(SC)nc2c1cnn2C1OC(C(O)CO)C(OC)C1O (stereo not given)
GI50 (P388/ADR): 41.3 µM (inactive) | GI50 (P388): > 39.4 µM (inactive) | GI50 (SN12K1): > 54.3 µM (inactive)

C/C=C/c1ccc([C@@H]2[C@@H](CO)N(c3nc(CC)cs3)[C@@H]2CNC(C)C)cc1
AC50 [1]: 20.8 µM (active) | AC50 [2]: 0.751 µM (active)

Cc1c(CC(=O)N2CCC(C(N)=O)CC2)c(=O)oc2cc3c(cc12)CCC1(CCCCC1)O3
EC50 [8]: > 50 µM (active)

O=C(CCc1ccccc1)n1nc(-c2ccco2)nc1SCc1ccccc1
IC50 (Prothrombin): 0.133 µM (active)

N#Cc1c(N)nc2c(c1-c1cccs1)CCCC2
AC50 [10]: 6.16 µM (active)

Cc1ccc2c(c1)-c1c(ssc1=S)C(C)(C)N2C(=O)c1ccco1
IC50 [11]: > 66 µM (inactive) | IC50 [12]: > 100 µM (inactive) | IC50 [13]: > 66 µM (inactive)

O=C(NN1C(=O)CS(=O)(=O)C1c1ccc(Cl)c(Cl)c1)c1ccncc1 (stereo not given)
GI50 (P388/ADR): 36.6 µM (inactive) | GI50 (P388): 25.6 µM (inactive) | GI50 (SN12K1): > 100 µM (inactive)

Clc1cccc(NCc2nnc(SCc3ccc(Cl)cc3Cl)o2)c1
IC50 [3]: > 69.5 µM (inactive) | CC50 [14]: 19.1 µM (active) | IC50 [4]: 25.4 µM (inactive)

CCNC(=O)C[C@H]1CC[C@H]2[C@H](COc3ccc(NS(C)(=O)=O)cc3C(=O)N2C)O1
AC50 [10]: 3.57 µM (active)

CCN1CCN(CCNC(=O)c2ccc3c(c2)N(Cc2ccc(F)cc2)C(=O)/C(=C/c2ccccc2)S3)CC1
IC50 [9]: 50 µM (inactive) | IC50 [15]: > 20 µM (inactive) | AC50 [16]: 3.61 µM (active)

C[C@]12Cc3cn4c(nc3C=C1CC[C@H]1[C@@H]2CC[C@@]2(C)[C@H]1CC[C@@]2(O)C#N)nc1ccccc14
AC50 (Cytochrome P450 3A4): inconclusive | AC50 (Cytochrome P450 2C9): 10 µM (inconclusive) | AC50 (Cytochrome P450 2D6): 25.1 µM (inconclusive) | AC50 (Cytochrome P450 1A2): 15.8 µM (inconclusive) | AC50 (Cytochrome P450 2C19): 7.94 µM (inconclusive)
